Values quoted from earlier work as cited in US20250099634A1, “METHOD OF TREATING CANCER” (Novartis AG, priority 2023, published 2025).

Tested on: G1-2 midgut and pancreatic NET
Details: 120 mg/month, cited from earlier work

## CC(C)[C@@H]1NC(=O)[C@H](CCCCN)NC(=O)[C@@H](Cc2c[nH]c3ccccc23)NC(=O)[C@H](Cc2ccc(O)cc2)NC(=O)[C@@H](NC(=O)[C@H](N)Cc2ccc3ccccc3c2)CSSC[C@@H](C(=O)N[C@H](C(N)=O)[C@@H](C)O)NC1=O [lanreotide]
95% CI 0.30 to 0.73
  HR for progression or death with lanreotide vs. placebo: 0.47
  median PFS: not reached
